Source: patent US10933032B2, “Methods for the treatment of cancer using coenzyme Q10 combination therapies” (Berg LLC, priority 2013, dated 2021)
Entries after “also recorded” stand apart in the source; their conditions may differ.

Tests used:
[1] = system: non-tumorigenic control cells (MCF12A); assay: Reactive oxygen species (ROS) production; assay type: cell-based; settings: 100 μM CoQ10 for 24 hours, FIG. 17
Protocol: (§1) Cells were treated with 100 μM CoQ10 for 24 hours.
(§2) Mitochondria represent a significant source of ROS which are known to participate in activation of cell death pathways.

[2] = system: MDA-MB213 breast cancer cells; assay: Reactive oxygen species (ROS) production; assay type: cell-based; settings: 100 μM CoQ10 for 24 hours, FIG. 17
Protocol: as §1, §2

[3] = system: MIAPaCa-2 human pancreatic tumor cells; assay: Xenogeneic mouse human pancreatic cancer model, tumors harvested at mortality (size, weight, vasculature, palpation); assay type: in vivo, NOD scid gamma (NSG) mice
[4] = system: cells; assay: Relative timing of CoQ10 and chemotherapeutic agents, cell killing in vitro (Example 7); assay type: cell-based; settings: Example 7, written in present tense
Protocol: Using the methods in Example 6, cells are tested to determine if the relative timing of treatment of cells with CoQ10 and chemotherapeutic agents has an effect on cell killing, e.g., by promotion of apoptosis, induction of tumor lysis, inhibition of cell proliferation.
Briefly, cells are cultured as in Example 6. Cells are treated with CoQ10 and chemotherapeutic agents, either alone or in combination, or with appropriate vehicle controls. For the cells treated with both CoQ10 and chemotherapeutic agents, the cells are contacted with the CoQ10 and chemotherapeutic agents in various sequences. Various concentrations of CoQ10 and chemotherapeutic agents are used. Various treatment times are also used.
After treatment with CoQ10 and chemotherapy as indicated, cells are harvested and assayed for viability and apoptosis using the methods provided above. […] The metabolic switch effectuated by CoQ10 in cancer cells is associated with induction of a novel integrated signaling cross-talk involving TP53, Bcl-2/Bax and VEGF that results in the recapitulation of apoptotic pathways.

[5] = system: Melanocytes (Hema, LP); assay: Induction of early apoptosis (Bcl-2, annexin V, or caspase activation); assay type: cell-based; settings: SKIN: Melanocytes (Hema, LP)
Protocol: (§3) The effects of Coenzyme Q10 treatment on a variety of oncogenic and normal cell lines were examined and compared. The sensitivity of cells to Coenzyme Q10 was assessed by monitoring induction of apoptosis. CoQ10 treatment of cells was carried out as described in detail below in the Materials and Methods. Induction of apoptosis was assessed in the treated cells by monitoring indicators of early apoptosis (e.g., Bcl-2 expression, caspase activation and by using annexin V assays) as described below. From these studies, the minimal CoQ10 dosage, e.g., concentration of CoQ10 and time of treatment, required to induce apoptosis in the panel of cell lines was determined.
(§4) Cells were cultured in T-75 flasks with relevant medium supplemented with 10% Fetal Bovine Serum (FBS), 1% PSA (penicillin, streptomycin, amphotericin B) (Invitrogen and Cellgro) in a 37° C. incubator with 5% CO2 levels until 70-80% confluence was reached. To harvest cells for treatment, flasks were primed with 1 mL Trypsin, aspirated, trypsinized with an additional 3 mL, and incubated at 37° C. for 3-5 minutes. Cells were then neutralized with an equal volume of media and the subsequent solution was centrifuged at […] for 8 minutes. The supernatant was aspirated and the cells were resuspended with 8.5 ml of media. A mixture of 500 ul of the resuspension and 9.5 ml of […] was read twice by a coulter counter and the appropriate number of cells to be seeded into each dish was determined. Control and concentration ranging from 0-200 μM groups were examined in triplicate. From a 500 μM CoQ-10 stock solution, serial dilutions were performed to achieve desired experimental concentration in appropriate dishes. Dishes were incubated in a 37° C. incubator with 5% CO2 levels for 0-72 hours depending on cell type and experimental protocol.
(§5) Following cell treatment incubation period was complete, protein isolation was performed. Dishes of all treatment groups were washed twice with 2 ml, and once with 1 ml of ice cold 1× Phosphate Buffered Saline (PBS). The PBS was aspirated from the dishes after the initial 2 washes only. Cells were gently scraped and collected into microcentrifuge tubes using the final volume from the third wash and centrifuged at 10,000 rpm for 10 minutes. After centrifugation, the supernatant was aspirated and the pellet was lysed with 50 uL of lysis buffer (1 uL of protease and phosphotase inhibitor for every 100 uL of lysis buffer). Samples were then frozen overnight at −20° C.
(§6) After the cell treatment incubation period was complete, protein isolation was performed. Flasks of all treatment groups were washed twice with 5 mL, and once with 3 mL of ice cold 1×PBS. The PBS was aspirated from the flasks after the first 2 washes only. Cells were gently scraped and collected into 15 mL centrifuge tubes using the final volume from the third wash and centrifuged for at 10,000 rpm for 10 minutes. After centrifugation, the supernatant was aspirated and the pellet was lysed with an appropriate amount of lysis buffer (1 uL of protease and phosphotase inhibitor for every 100 uL of lysis buffer). Lysis buffer volume was dependent on pellet size. Samples were transferred in microcentrifuge tubes and frozen overnight at −20° C.
(§7) Samples were thawed at […] and sonicated to ensure homogenization the day following protein isolation. Protein quantification was performed using the micro BCA protein assay kit (Pierce). To prepare samples for Immuno-blotting, a 1:19 solution of betamercaptoethanol (Sigma) to sample buffer (Bio-Rad) was prepared. Samples were diluted 1:1 with the betamercaptoethanol-sample buffer solution, boiled at 95° C. for 5 minutes, and frozen overnight at −20° C.
(§8) The volume of sample to load per well was determined using the raw mean concentration of protein obtained from the BCA protein assay. Approximately 30-60 μg of protein were loaded for each treatment time point. […]

[6] = system: Fibroblasts (nFib); assay: as above; assay type: cell-based; settings: SKIN: Fibroblasts (nFib)
Protocol: as §3, §4, §5, §6, §7, §8

[7] = system: Melanoma (Skmel 2); assay: as above; assay type: cell-based; settings: SKIN: Melanoma (Skmel 2)
Protocol: as §3, §4, §5, §6, §7, §8

[8] = system: MCF-7; assay: as above; assay type: cell-based; settings: BREAST: MCF-7
Protocol: as §3, §4, §5, §6, §7, §8

[9] = system: Ewing's sarcoma (NCI); assay: as above; assay type: cell-based; settings: BONE: Ewing's sarcoma (NCI)
Protocol: as §3, §4, §5, §6, §7, §8

[10] = system: MDA MB 468; assay: as above; assay type: cell-based; settings: BREAST: MDA MB 468
Protocol: as §3, §4, §5, §6, §7, §8

[11] = system: ZR-75; assay: as above; assay type: cell-based; settings: BREAST: ZR-75
Protocol: as §3, §4, §5, §6, §7, §8

[12] = system: tumors; settings: Example 8, written in present tense
Protocol: In an in vivo tumor xenograft model, mice are implanted with tumors. For example, MIAPaCa-2 pancreatic cancer cells suspended in [sequence] are injected into NSG mice. Alternatively, other tumor cell lines, e.g., triple negative breast cancer, hepatic cancer, prostate cancer, melanoma, sarcoma, carcinoma cell lines, are used in the xenograft mouse model.
Various sequential regimens and combinations of CoQ10 and chemotherapeutic agents are tested for the ability to reduce tumor burden and/or reduce tumor metastasis. […] For example, in some animals, 2 or more cycles of CoQ10 are administered in Treatment 1 prior to one or more cycles of the chemotherapeutic agent in Treatment 2. In some animals, one cycle of CoQ10 is administered in Treatment 1 prior to administration of multiple cycles of chemotherapy in Treatment 2.
Tumor volumes are monitored using routine methods, e.g., calipers, imaging analysis. At the end of the study, tumors are excised and analyzed for using routine methods, e.g., for size (e.g., weight and volume), histological characteristics, grade, and vascularization.

[13] = in vivo; settings: rat, rats, given three times per week for 4 weeks

Compound: COC1=C(OC)C(=O)C(C/C=C(\C)CC/C=C(\C)CC/C=C(\C)CC/C=C(\C)CC/C=C(\C)CC/C=C(\C)CC/C=C(\C)CC/C=C(\C)CC/C=C(\C)CCC=C(C)C)=C(C)C1=O [CoQ10, Coenzyme Q10]
- ROS production [1]: increased ROS production
- ROS production [2]: increased ROS production
- Growth of pancreatic tumors (tumor size at time of death) vs control ([3]; Example 1, single agents: Group 2 Coenzyme Q10 IV 50 mg/kg/day, Group 3 gemcitabine 150 mg/kg/week, FIG. 2): inhibited the growth of pancreatic tumors; also recorded: inhibits pancreatic tumor growth
- Tumor vasculature (histological analysis) ([3]; Example 1, intravenous Coenzyme Q10 vs untreated control mice, not quantified): decreased tumor vasculature; also recorded: decrease in the amount of vasculature in pancreatic tumors
- Tumor weight / tumor growth, combination of Coenzyme Q10 and gemcitabine (Group 4) ([3]; Example 1, vs Coenzyme Q10 alone or gemcitabine alone, FIG. 3): significantly smaller than tumors from mice treated with Coenzyme Q10 alone; also recorded: more effective at inhibiting the growth of pancreatic tumors in mice than treatment with either agent alone
- Tumor weight at mortality, Coenzyme Q10 alone (Group 2) ([3]; Example 1, vs control group and gemcitabine treated group, FIG. 3): significantly smaller than tumors from mice in the control group
- Cell killing, pretreatment with CoQ10, discontinuation, then chemotherapy [4]: also effective in cell killing
- Cell killing, pretreatment with CoQ10 followed by concurrent CoQ10 and chemotherapy [4]: effective in cell killing
- Cell killing, pretreatment with CoQ10 prior to chemotherapy [4]: more effective in cell killing than co-treatment with CoQ10 and chemotherapy or treatment with CoQ10 after chemotherapy
- Indication of Early apoptosis (Bcl-2, annexin V, or caspase activation) [5]: None
- Indication of Early apoptosis (Bcl-2, annexin V, or caspase activation) [6]: None
- Indication of Early apoptosis (Bcl-2, annexin V, or caspase activation) [7]: Very Strong
- Minimal CoQ10 concentration required for induction of early apoptosis, Concentration [7]: 25 µM
- Minimal treatment time required for induction of early apoptosis, Time [7]: 24 h
- Indication of Early apoptosis (Bcl-2, annexin V, or caspase activation) [8]: Strong
- Minimal CoQ10 concentration required for induction of early apoptosis, Concentration [8]: 50 µM
- Minimal treatment time required for induction of early apoptosis, Time [8]: 48 h
- Minimal CoQ10 concentration required for induction of early apoptosis, Concentration [9]: 5 µM
- Minimal treatment time required for induction of early apoptosis, Time [9]: 1 h
- Indication of Early apoptosis (Bcl-2, annexin V, or caspase activation) ([9]; cell wraps: Extremely / strong): Extremely
- Indication of Early apoptosis (Bcl-2, annexin V, or caspase activation) [10]: Strong
- Minimal CoQ10 concentration required for induction of early apoptosis, Concentration [10]: 100 µM
- Minimal treatment time required for induction of early apoptosis, Time [10]: 48 h
- Indication of Early apoptosis (Bcl-2, annexin V, or caspase activation) [11]: Slight
- Minimal CoQ10 concentration required for induction of early apoptosis, Concentration [11]: 200 µM
- Minimal treatment time required for induction of early apoptosis, Time [11]: 72 h
- Efficacy (tumor burden), one or more cycles of CoQ10 prior to a chemotherapeutic agent [12]: more effective than co-administration of CoQ10 with a chemotherapeutic agent or a chemotherapeutic agent alone
- MTD at 4 weeks [13]: 250 mg/kg
